Laboratory results reported in the supplement of paper PMC10307832.

How the values were obtained:
Test in all cases: relative viability (nuclei count vs DMSO), 5 days (fraction); higher = more cells survive
Vorinostat + Luminespib = compound: O=C(CCCCCCC(=O)Nc1ccccc1)NO [Vorinostat] + CCNC(=O)c1noc(-c2cc(C(C)C)c(O)cc2O)c1-c1ccc(CN2CCOCC2)cc1 [Luminespib] (partner 0.01 µM)
Outline: (§1)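 Cells from lung cancer lines were seeded into 1536-well plates and, one day later, dosed by pin tool. Treatments were either a single drug or a fixed dose of an anchor drug with five library-drug doses (not always all listed) in √10 steps. After 5 days, nuclei were stained in a one-step fixation (final 0.05% Triton X-100, 1% formaldehyde, 1 ug/ml Hoechst) and counted on 4× images, and relative viability is the treated-to-vehicle nuclei ratio, as the median of duplicate plates.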

Vorinostat + OSI-027 = compound: O=C(CCCCCCC(=O)Nc1ccccc1)NO [Vorinostat] + COc1cccc2cc(-c3nc([C@H]4CC[C@H](C(=O)O)CC4)n4ncnc(N)c34)[nH]c12 [OSI-027] (partner 0.5 µM)
Outline: as §1

Vorinostat + Pictilisib = compound: O=C(CCCCCCC(=O)Nc1ccccc1)NO [Vorinostat] + CS(=O)(=O)N1CCN(Cc2cc3nc(-c4cccc5[nH]ncc45)nc(N4CCOCC4)c3s2)CC1 [Pictilisib] (partner 1 µM)
Outline: as §1

Vorinostat + Phenformin = compound: O=C(CCCCCCC(=O)Nc1ccccc1)NO [Vorinostat] + N=C(N)NC(=N)NCCc1ccccc1 [Phenformin] (partner 250 µM)
Outline: as §1

Vorinostat + Olaparib = compound: O=C(CCCCCCC(=O)Nc1ccccc1)NO [Vorinostat] + O=C(c1cc(Cc2n[nH]c(=O)c3ccccc23)ccc1F)N1CCN(C(=O)C2CC2)CC1 [Olaparib] (partner 8 µM)
Outline: as §1

Row | Cell Line | relative viability (Vorinostat + Luminespib; first compound 0.253 µM) | relative viability (Vorinostat + Luminespib; first compound 0.8 µM) | relative viability (Vorinostat + Luminespib; first compound 2.53 µM) | relative viability (Vorinostat + Luminespib; first compound 8 µM) | relative viability (Vorinostat + OSI-027; first compound 0.253 µM) | relative viability (Vorinostat + OSI-027; first compound 0.8 µM) | relative viability (Vorinostat + OSI-027; first compound 2.53 µM) | relative viability (Vorinostat + OSI-027; first compound 8 µM) | relative viability (Vorinostat + Pictilisib; first compound 0.253 µM) | relative viability (Vorinostat + Pictilisib; first compound 0.8 µM) | relative viability (Vorinostat + Pictilisib; first compound 2.53 µM) | relative viability (Vorinostat + Pictilisib; first compound 8 µM) | relative viability (Vorinostat + Phenformin; first compound 0.253 µM) | relative viability (Vorinostat + Phenformin; first compound 0.8 µM) | relative viability (Vorinostat + Phenformin; first compound 2.53 µM) | relative viability (Vorinostat + Phenformin; first compound 8 µM) | relative viability (Vorinostat + Olaparib; first compound 0.253 µM) | relative viability (Vorinostat + Olaparib; first compound 0.8 µM) | relative viability (Vorinostat + Olaparib; first compound 2.53 µM) | relative viability (Vorinostat + Olaparib; first compound 8 µM)
1 | EKVX | 0.984 | 0.952 | 0.659 | 0.17 | 0.623 | 0.659 | 0.39 | 0.132 | 0.475 | 0.441 | 0.21 | 0.103 | 0.228 | 0.238 | 0.225 | 0.134 | 1.02 | 0.833 | 0.335 | 0.15
2 | SW 900 | 0.172 | 0.161 | 0.16 | 0.133 | 0.49 | 0.472 | 0.227 | 0.0866 |  |  |  |  | 0.73 | 0.391 | 0.322 | 0.091 | 0.901 | 0.589 | 0.192 | 0.113
3 | NCI-H2342 | 0.817 | 0.589 | 0.499 | 0.391 | 0.607 | 0.649 | 0.524 | 0.386 |  |  |  |  | 0.561 | 0.653 | 0.573 | 0.375 | 0.467 | 0.496 | 0.308 | 0.269
4 | LU99A | 0.291 | 0.26 | 0.141 | 0.121 | 0.352 | 0.276 | 0.195 | 0.164 | 0.264 | 0.278 | 0.154 | 0.141 | 0.952 | 0.609 | 0.447 | 0.185 | 0.232 | 0.177 | 0.104 | 0.101
5 | SK-MES-1 | 1.01 | 0.774 | 0.423 | 0.178 | 0.72 | 0.664 | 0.199 | 0.149 | 0.469 | 0.349 | 0.231 | 0.0945 | 0.719 | 0.723 | 0.517 | 0.207 | 0.84 | 0.774 | 0.327 | 0.181
6 | NCI-H2023 | 1.04 | 0.534 | 0.188 | 0.0701 | 0.473 | 0.359 | 0.134 | 0.0617 | 0.221 | 0.214 | 0.128 | 0.0818 | 0.444 | 0.442 | 0.192 | 0.0722 | 0.403 | 0.296 | 0.113 | 0.0691
7 | NCI-H596 | 0.933 | 1.05 | 0.476 | 0.265 | 0.843 | 0.36 | 0.637 | 0.293 | 0.355 | 0.357 | 0.316 | 0.277 | 0.838 | 0.587 | 0.474 | 0.272 | 0.725 | 0.512 | 0.326 | 0.204
8 | NCI-H2009 | 1.04 | 0.935 | 0.752 | 0.144 | 0.793 | 0.795 | 0.254 | 0.0901 | 1.3 | 0.747 | 0.346 | 0.0949 | 0.545 | 0.496 | 0.319 | 0.144 | 0.729 | 0.582 | 0.395 | 0.0928
